Like-named read-outs stand apart in the source and are kept apart here.
Assays:
C5a production = experiment: Inhibition of C5a production in human serum (aggregated IgG, RIA); type: biochemical; conditions: concentration inhibiting C5a production 50% relative to control
Method: The ability to inhibit complement was tested by assaying for specific inhibition of C3a and C5a production. For all experiments, a single human serum pool, to be used as a source of complement, was aliquoted and stored frozen at -70° C. Human IgG was heat-aggregated, aliquoted, and stored frozen at -70° C. For each experiment, serum aliquots were equilibrated at 37° C. with varying concentrations of the compounds tested. The classical complement pathway was initiated by the addition of aggregated human IgG. Control samples containing no IgG were always included. After a fixed reaction time of 10 minutes (determined in an earlier time-course study to provide a convenient time interval during which the production of C5a or C3a is nearly complete, i.e., greater than 90%), the levels of the released complement peptides (C5a or C3a) were determined by radioimmunoassay using commercially available radioimmunoassay (RIA) kits (C5a RIA, UpJohn Cat. No. 3250-02; C3a RIA, UpJohn Cat. No. 3245-01; C5a RIA, Amersham Cat. No. RPA.520; C3a RIA, Amersham RPA.518).
Since a competitive immunoassay was used, complement peptide (C5a and C3a) concentrations varied inversely with the counts. The Counts Bound (CB) for a sample was defined as the total counts (in counts per minute, cpm) measured in the pellet minus the counts measured in a nonspecific binding (NSB) control. The NSB control was a sample containing only tracer peptide (^125 I-labelled) and second precipitating antiserum; it contained no C5a- or C3a-specific antiserum.
The y-axis in FIG. 2 represents the fraction inhibition. The fraction inhibition is equal to the Counts Bound (CB) for a "sample," less the CB in the "sample with no added compound," divided by the CB for the "no IgG control" less the CB in the "sample with no added compound." [formula]
FIG. 2 is representative of the data plots obtained from the assays described above.

[1] = Inhibition of natural killer activity, 51Cr release cytotoxicity assay; type: cell-based; conditions: human, k562 cells, read-out: Spont. Release Target Cells Alone (K562)
Method: (§1) Compounds were tested for their effects on the ability of peripheral blood mononuclear cells to lyse NK-sensitive target cells, K562. NK activity was determined using ^51 Cr-labeled K562 erythromyeloid leukemia cells as targets, and normal peripheral blood mononuclear cells as effector cells, in a four hour cytotoxicity assay. Effector cells were isolated from fresh blood by Ficoll-Hypaque gradient centrifugation, and 100 μl of a 5×10^5 cell/well suspension were added to each well of a V-bottom microtiter plate. The compound 11a was diluted in RPMI 1640 medium containing 10% fetal calf serum and dispensed at 100 μl per well. Target cells (K562) were labeled for 30 minutes with 100 μCi of ^51 Cr, washed thoroughly and dispensed in a 20 μl volume at 10^4 cells/well. […] The microtiter plate was centrifuged at 50×g for 5 minutes and incubated in a humidified chamber with 5% CO2 at 37° C. After 4 hours, 100 μl were removed from each well and the radioactivity was measured with a LKB 1275 gamma counter. The percent specific lysis was calculated as follows:
(§2) % specific lysis=[(EXP-SR)/(TOTAL-B)]×100
(§3) where EXP (experimental value) was obtained using effector and target cells; SR (the spontaneous release) was obtained from target cells incubated with media alone; TOTAL release was obtained by hypotonic lysis in water; and B represents instrumental background. Means were calculated from quadruplicate wells and the standard deviations never exceeded 10%. Viability of the effector cells incubated with the test compound was determined by trypan blue exclusion.

[2] = tested on: K562 erythromyeloid leukemia cells (NK-sensitive target cells); experiment: as above; type: cell-based; conditions: effector:target 50:1, 4 h
Method: as §1, §2, §3

[3] = Viability of effector cells by trypan blue exclusion; type: cell-based; conditions: human, peripheral blood mononuclear cells
Method: as §3

[4] = tested on: human peripheral blood lymphocytes (PBL); experiment: Inhibition of proliferation of peripheral blood lymphocytes, 3H-thymidine incorporation; type: cell-based; conditions: Lymphocyte
Method: The proliferation of human peripheral blood lymphocytes (PBL) in response to phytohemagglutinin (PHA, Well-come) or anti-CD3 monoclonal antibody (OKT-3, Ortho) was assessed by the incorporation of ^3 H-thymidine. Compound 11a was diluted in culture media to the desired concentrations, human PBL were added to a final concentration of 10^6 cells/ml, and then either PHA (Wellcome) or anti-CD3 (OKT3, Ortho) antibody (final concentration, […]) was added to initiate proliferation. The final volume per sample was 100 μl. The cells were incubated for 72 hours after stimulation, pulsed with 1 μCi ^3 H-thymidine per sample for 4 hours, harvested, and counted in a scintillation counter. […] Because cell viability was unaffected by the presence of 11a (see supra), the inhibition apparently was not due to cytotoxic effects.

[5] = tested on: Chinese hamster ovary (CHO) cells; experiment: CHO cell proliferation, 3H-thymidine incorporation; type: cell-based
Method: Non-confluent CHO cells were allowed to proliferate for 4 hours in a 96-well plate at a volume of 50 μl per well in the absence or presence of compound 11a at a concentration of 1.8 mM. The cells were pulsed with 0.5 μCi of ^3 H-thymidine per sample for 4 hours, harvested, and the amount of incorporated ^3 H-thymidine was determined by scintillation counting. The CHO cells allowed to proliferate in the absence of added compound yielded a value of 57025 (±7530) CPM. The value for the sample grown in the presence of 11a was 52549 (±6272) CPM.

[6] = tested on: human peripheral blood lymphocytes (PBL); experiment: Inhibition of proliferation of peripheral blood lymphocytes, 3H-thymidine incorporation; type: cell-based; conditions: without stimulant, concentration ranges used in the proliferation assay

SMILES: COc1ccc(C(=O)O)c2c1CC1(CCCCC1)O2 [Compound 11a, 7-carboxy-4-methoxyspiro[benzofuran-2(3H)-cyclohexane]]
- IC50 (C5a production): 5000 µM
- % spontaneous 51Cr release of K562 target cells alone at 4 h, 400 µM ([1]; 0.4 mM): 5%
- % spontaneous 51Cr release of K562 target cells alone at 4 h, 800 µM ([1]; 0.8 mM): 5%
- % spontaneous 51Cr release of K562 target cells alone at 4 h, 1600 µM ([1]; 1.6 mM): 5%
- % spontaneous 51Cr release of K562 target cells alone at 4 h, 3200 µM ([1]; 3.2 mM): 5%
- % spontaneous 51Cr release of K562 target cells alone at 4 h, 6400 µM ([1]; 6.4 mM): 23%
- % Specific Lysis ([2]; 0.4 mM): 7%
- % Specific Lysis ([2]; 0.8 mM): 4%
- % Specific Lysis ([2]; 1.6 mM): 1%
- % Specific Lysis ([2]; 3.2 mM): -1%
- % Specific Lysis ([2]; 6.4 mM): 18%
- viability at 400 µM ([3]; 0.4 mM): 95%
- viability at 800 µM ([3]; 0.8 mM): 95%
- viability at 1600 µM ([3]; 1.6 mM): 95%
- viability at 3200 µM ([3]; 3.2 mM): 76%
- viability at 6400 µM ([3]; 6.4 mM): 5%
- IC50 ([4]; PHA stimulated (FIG. 4), read-out: Half-maximal inhibition of PBL proliferation): ~500 µM
- IC50 ([4]; Table IX, PHA stimulation, 72 h, read-out: IP50 PHA-stimulated PBL): 400 µM
- IC50 ([4]; Table IX, anti-CD3 (OKT-3) stimulation, 72 h, read-out: IP50 OKT-3-stimulated PBL): 500 µM
- inhibition of CHO cell proliferation [5]: no inhibition
- incorporated 3H-thymidine ([5]; 1.8 mM, CHO cells): 52549 (±6272) CPM
- PBL viability by trypan blue exclusion [6]: viable
